Measured values taken from patent publication US20070292951A1, “MEDIA AND METHODS FOR CULTURING PLANT EMBRYOS” (priority 1997, published 2007).

Legend:
[1] = tested on: Brassica napus microspores; test: Microspore embryogenesis in liquid half-strength NLN medium with different osmotica; type: cell-based, Brassica napus L. cv. Topas; conditions: for Induction of MD embryos: within two weeks, 13% sucrose, 8% mannitol or 25% PEG 4000 (w/v), mannitol and PEG media with about 0.08%-0.1% sucrose
Procedure: A mixed population consisting of microspores from mid- and late-uninucleate stages to young bicellular pollen was isolated from the flower buds using a protocol modified from that described by Ferrie and Keller, in: Gamborg and Phillips (eds) Plant Cell, Tissue and Organ Culture, Fundamental methods, pp 155-164, 1993 (Springer Verlag). For each treatment, twelve surface-sterilized buds (3.6-4.2 mm in length) were macerated in 5 ml half-strength B5 washing medium (Gamborg et al., Exp. Cell Res. 50:151-158, 1968) containing 13% sucrose (w/v) in 50 ml beakers. The crude suspension was filtered through 44 μm Nytex nylon mesh, both beakers and meshes were rinsed, and a total of 20 ml was collected into 50 ml centrifuge tubes and centrifuged at 150×g for 3 minutes. The pellets were resuspended in 5 ml of washing medium, the washing procedure was repeated twice, and the final supernatant was carefully pipetted out, leaving the pellet in approximately 0.3-0.4 ml of washing medium. Final resuspension was done by adding filter-sterilized half-strength NLN medium (Lichter, Z. Pflanzenphysiol. 105:427-434, 1982) containing 13% (w/v) sucrose as the control treatment; in the other two treatments, ½ NLN sucrose-free medium with 8% (w/v) mannitol or 25% (w/v) PEG 4000 (Fluka Chemika) was added, respectively. Therefore, the ½ NLN-mannitol and -PEG media contained only about 0.08%-0.1% sucrose, remaining from the washing medium.
Aliquots of […] of microspore suspension were plated into 10×15 mm sterile petri dishes, with an approximate plating density of 40,000 microspores/ml. Plates were first incubated at 35° C. for one hour followed by 33° C. for the next 14-18 hours and then placed on a shaker (50 rpm) in the dark at 24° C. for 14 days. During the first 8 days in culture, PEG and mannitol media were gradually diluted by adding to the plates an adequate volume of a simple ½ NLN medium, containing no sucrose. mannitol, or PEG, to give a final concentration of approximately 22% PEG and 7% mannitol. The concentration of sucrose in the control treatment was lowered the same way to a final concentration of 11%. After two weeks, plates with MD embryos were placed under light (16/8 hours photoperiod) at 24° C. for an additional week. Experiments dealing with mannitol as osmoticum were repeated three times with five replicates, while experiments dealing with PEG and sucrose as a control were repeated at least ten times with a minimum of three replicates.
Microspores at late unicellular stage and young bicellular pollen were isolated from the flower buds using a protocol for Brassica napus, modified from that described by Ferrie and Keller, in: Gamborg and Phillips (eds) Plant Cell, Tissue and Organ Culture, Fundamental methods, pp 155-164, 1993 (Springer Verlag). Twelve surface-sterilized buds (3.6-4.2 mm in length) were macerated in a 50 ml beaker with 5 ml half-strength B5 washing medium (Gamborg et al., Exp. Cell Res. 50:151-158, 1968) containing 13% sucrose (w/v). The crude suspension was filtered through 44 μm nylon mesh and centrifuged at 150×g for 3 minutes, and the pellet was resuspended in 5 ml of washing medium. The washing procedure was repeated twice, and the final supernatant was carefully pipetted out, leaving the pellet in approximately 0.3-0.4 ml of washing medium. Final resuspension was done by adding filter-sterilized half-strength NLN medium (Lichter, Z. Pflanzenphysiol 105:427-434, 1982) containing either 13% sucrose (w/v) as a control or 25% (w/v) polyethylene glycol 4000 (Fluka Chemika). Therefore, the final ½ NLN-PEG medium contained only about 0.08%-0.1% sucrose, remaining from the washing medium.
Aliquots of 10 ml of the microspore suspension were plated into 10×15 mm sterile petri dishes, with an approximate plating density of 40,000 microspores/ml. Plates were first incubated at 35° C. for one hour followed by 33° C. for the next 14-18 hours and then placed on a shaker (50 rpm) in the dark at 24° C. for 14 days. […]

[2] = tested on: Brassica napus MD embryos; test: Conversion of three-week-old MD embryos into plantlets on hormone-free solid medium; type: cell-based; conditions: embryos grown on the named osmoticum
Procedure: Plates containing the embryos may then be placed under light at 24° C. for an additional week. Once placed under light, the embryos generally increase in size and become green quickly. Within one week under light, cotyledons are typically well-developed, often widely opened and dark green, and the embryos are morphologically similar to zygotic embryos dissected from ovules (see FIGS. 2A-2C). The three-week embryos may then be rinsed and transferred to culture containers containing a suitable medium, such as half-strength B5 medium containing 1% sucrose and no growth regulators. The conversion frequency is the percentage of MD embryos that develop roots, true leaves and a green color within 3-4 weeks. Aliquots of 10 ml of the microspore suspension were plated into 10×15 mm sterile petri dishes, with an approximate plating density of 40,000 microspores/ml. Plates were first incubated at 35° C. for one hour followed by 33° C. for the next 14-18 hours and then placed on a shaker (50 rpm) in the dark at 24° C. for 14 days. […] Conversion frequency (%) of sucrose- and PEG-cultured MD embryos was recorded based on presence of roots, appearance of first true leaves and green color of plantlets, with three replicates for each treatment.

Row | Structure (SMILES) | Cell divisions of microspores after heat shock treatment ([1]; mannitol solution) | Induction of MD embryos [1] | Embryo length at heart-shaped stage ([1]; SEM) | Embryo length at torpedo stage ([1]; SEM) | Proembryo size at globular-to-heart-shaped transition ([1]; about day 8, SEM) | Embryo length, cotyledonary stage ([1]; after two weeks in culture) | Starch grains and protein bodies in cotyledon stage embryos ([1]; light microscopy) | Morphology of three-week-old MD embryos compared with zygotic embryos (14 and 15 DPA) ([1]; three weeks, last week under light) | Plantlet morphology after transfer to solid medium [2]
1 | OC[C@@H](O)[C@@H](O)[C@H](O)[C@H](O)CO [mannitol] | no divisions were observed | yielded no embryos |  |  |  |  |  |  | 
2 | OC[C@H]1O[C@@](CO)(O[C@H]2O[C@H](CO)[C@@H](O)[C@H](O)[C@H]2O)[C@@H](O)[C@@H]1O [sucrose] |  | developed into embryos | approximately 300 μm | ≥ 400 μm | 150-250 μm | 2-4 mm | abundant starch grains with no protein bodies | pale green, had elongated embryo axes and relatively small underdeveloped cotyledons | hypocotyls were short, often thick (hyperhydrated) and aberrant
